Test system: BC-1 cells
Assay: MTT assay, deletion and mutant peptides
Type: cell-based, human
Source text: Fig. 2 Viral and cellular responses to K-Rta peptide; identification of VGN50. a Protein sequence alignment. Homologous protein sequences were searched for with BLAST and extracted from other gamma-herpesviral homologs. The consensus protein sequence is depicted at the bottom of table. b Peptide design. Deletion peptides were designed based on the consensus sequence in a. The TAT protein sequence was used as a cell-penetrating peptide (CPP) and placed downstream from the K-Rta protein sequence. (d-R) D amino acid arginine, (ORN) ornithine, (bAla) beta alanine. c Sub cellular peptide localization. Cy5-labeled peptide 1 was used to track subcellular localization. Nuclei were visualized by DAPI staining. The scale is indicated in the panel. d MTT assays with deletion and mutant peptides. Peptide listed in b were incubated with BC-1 cells and MTT conversion was measured 48 h after incubation. The OD of mock-treated samples were set as 100%, and OD from detergent-treated cells were set as 0%. The amount of each peptide used for incubation is depicted along the x-axis. Mean percentage viability ±SD were calculated for each treatment group (n = 3 samples). Peptide 1 was renamed as VGN50. e Flow cytometry analyses of cell proliferation and apoptosis induction. Cells were incubated with VGN50 or mutant peptide (three alanine substitutions) for 24 h followed by measurements of percentage cell proliferation (Ki67 staining) and apoptosis induction (Annexin V staining). Standard deviation bars are included. (n = 3) Two-way Anova, followed by Sidak’s multiple comparisons test. f The effect of VGN50 on various cancer cell types. MTT assays were performed with the indicated cell lines treated with various VGN50 concentrations. The OD of mock-treated samples were set as 100%, and OD from detergent-treated cells were set as 0%. Mean percentage viability ±SD was calculated for each treatment (n = 3 samples/treatment). g Viability assay with flow cytometry. Cell viability was measured in triplicate with live/dead staining and the cell killing effects on cancer cells was compared with normal peripheral blood mononuclear cells (PBMC) from three healthy donors. Results are presented as mean percentage viability ±SD (n = 3 samples/group). f, g Ordinary one-way Anova, followed by Tukey’s multiple comparisons test. […]
Leukoreduction system chambers (LRS) from healthy donors were purchased from Vitalant. […] Cell death, apoptosis, and proliferation were analyzed by flow cytometry (BD Acuri) after intracellular staining with anti-humanKi67-Alexa488 (Biolegend, 1:100) along with the isotype control antibody, annexin-V-FITC with 7-AAD staining (Biolegend) according to the manufacture’s protocol, Live/dead Fixable Red Dead Cell staining kit (Invitrogen) according to the manufacture’s protocol, or MTT assay. […]

Which “Fold less effective compared to Pep 1 and 3 (MTT)” value (BC-1) does the source give for `CC[C@H](C)[C@H](NC(=O)[C@H](CO)NC(=O)[C@H](CO)NC(=O)[C@H](CC(C)C)NC(=O)[C@H](CC(C)C)NC(=O)[C@H](C)NC(=O)[C@H](CC(=O)O)NC(=O)[C@H](CC(=O)O)NC(=O)CCNC(=O)[C@H](CCCNC(=N)N)NC(=O)[C@H](CCCNC(=N)N)NC(=O)[C@H](CCCNC(=N)N)NC(=O)[C@H](CCCN)NC(=O)[C@H](CCCNC(=N)N)NC(=O)[C@H](CCCNC(=N)N)NC(=O)[C@H](CCCCN)NC(=O)[C@H](CCCCN)NC(=O)[C@H](N)CCCNC(=N)N)C(=O)N[C@@H](CC(C)C)C(=O)N[C@@H](CCC(N)=O)C(=O)NCC(=O)N[C@@H](CC(C)C)C(=O)N[C@@H](Cc1ccc(O)cc1)C(=O)O` [Pep 4] here?
The value was ~ 4 fold.

`CC[C@H](C)[C@H](NC(=O)[C@H](CO)NC(=O)[C@H](CO)NC(=O)[C@H](CC(C)C)NC(=O)[C@H](CC(C)C)NC(=O)[C@H](C)NC(=O)[C@H](CC(=O)O)NC(=O)CCNC(=O)[C@H](CCCNC(=N)N)NC(=O)[C@H](CCCNC(=N)N)NC(=O)[C@H](CCCNC(=N)N)NC(=O)[C@H](CCCN)NC(=O)[C@H](CCCNC(=N)N)NC(=O)[C@H](CCCNC(=N)N)NC(=O)[C@H](CCCCN)NC(=O)[C@H](CCCCN)NC(=O)[C@H](N)CCCNC(=N)N)C(=O)N[C@@H](CC(C)C)C(=O)N[C@@H](CCC(N)=O)C(=O)NCC(=O)N[C@@H](CC(C)C)C(=O)N[C@@H](Cc1ccc(O)cc1)C(=O)N[C@@H](CCC(N)=O)C(=O)N[C@@H](CC(C)C)C(=O)N[C@@H](CC(=O)O)C(=O)N[C@H](C(=O)O)[C@@H](C)O` [Pep 3] was tested. Which “Reduction of cell viability (MTT) compared to untreated control” value (BC-1, 16 µM) did it give?
Its value is 90%.

`CC[C@H](C)[C@H](NC(=O)[C@H](CO)NC(=O)[C@H](CO)NC(=O)CCNC(=O)[C@H](CCCNC(=N)N)NC(=O)[C@H](CCCNC(=N)N)NC(=O)[C@H](CCCNC(=N)N)NC(=O)[C@H](CCCN)NC(=O)[C@H](CCCNC(=N)N)NC(=O)[C@H](CCCNC(=N)N)NC(=O)[C@H](CCCCN)NC(=O)[C@H](CCCCN)NC(=O)[C@H](N)CCCNC(=N)N)C(=O)N[C@@H](CC(C)C)C(=O)N[C@@H](CCC(N)=O)C(=O)NCC(=O)N[C@@H](CC(C)C)C(=O)N[C@@H](Cc1ccc(O)cc1)C(=O)N[C@@H](CCC(N)=O)C(=O)N[C@@H](CC(C)C)C(=O)N[C@@H](CC(=O)O)C(=O)N[C@H](C(=O)O)[C@@H](C)O` [Pep 2] was tested. Which “Reduction of cell viability (MTT) compared to untreated control” value (BC-1, 64 μM) did it give?
Its value is 20%.

— PMC8639922, “KSHV transactivator-derived small peptide traps coactivators to attenuate MYC and inhibits leukemia and lymphoma cell growth” (Communications Biology, 2021)
